In PubChem BioAssay (NCI) one finds GI50 and TGI data, which are given here for 7 molecules.

Test systems include DU-145 prostate; NCI-H226 lung; HCT-15 colon; HL-60(TB) leukemia; SF-295 CNS; HOP-92 NSCLC; CAKI-1 renal; HCC-2998 colon; HCT-116 colon; MALME-3M melanoma.
Assay in all cases: growth of human tumour cells (NCI), 48 h

The structures appear in SMILES notation.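 Each compound was tested at five concentrations against cells in 96-well plates for 48 hours. GI50 is the concentration that inhibits growth by half. TGI is the concentration that stops growth completely.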

On to `CCC(C)(C)[C@H](NC(=O)[C@H]1CCCCN1C)C(=O)N(C)[C@H](C[C@@H](OC(C)=O)c1nc(C(=O)N[C@@H](Cc2ccccc2)C[C@H](C)C(=O)O)cs1)C(C)C`, for which the GI50 in the experiment on DU-145 prostate was under 0.00167 µM; with NCI-H226 lung it was under 0.00167 µM; in the experiment on HCT-15 colon, under 0.00167 µM; in the experiment on HL-60(TB) leukemia it was under 0.00167 µM; in the experiment with SF-295 CNS, under 0.00167 µM; in the experiment on HOP-92 NSCLC it was 0.00661 µM. In addition, the GI50 in the experiment with CAKI-1 renal, with HCC-2998 colon, with HCT-116 colon and in the experiment on MALME-3M melanoma was under 0.00167 µM in each case. In addition, the TGI is 0.00743 µM with NCI-H226 lung; over 16.7 µM in the experiment on HCT-15 colon; under 0.00167 µM in the experiment on HL-60(TB) leukemia; over 16.7 µM in the experiment with HOP-92 NSCLC; over 16.7 µM in the experiment on CAKI-1 renal; over 16.7 µM with HCC-2998 colon. For the same molecule, the TGI in the experiment on HCT-116 colon and with MALME-3M melanoma was over 16.7 µM each time.
As for `CS(=N)(=O)CCC(N)P(=O)(O)O` (stereo not drawn), the TGI with DU-145 prostate, with NCI-H226 lung, with HCT-15 colon, with HL-60(TB) leukemia, with SF-295 CNS and with HOP-92 NSCLC was over 100 µM in each case. Also, the TGI in the experiment on CAKI-1 renal, in the experiment on HCC-2998 colon, with HCT-116 colon and with MALME-3M melanoma was over 100 µM in each case.
For `O=C(NS(=O)(=O)c1ccc(NC[C@H]2COCCO2)c([N+](=O)[O-])c1)c1ccc(N2CCN(CC3=C(c4ccc(Cl)cc4)CC4(CCC4)CC3)CC2)cc1Oc1cnc2[nH]ccc2c1`, the GI50 was 3.57 µM in the experiment with DU-145 prostate; 1.88 µM in the experiment with NCI-H226 lung; 1.94 µM in the experiment with HCT-15 colon; 1.6 µM in the experiment on HL-60(TB) leukemia; 1.66 µM in the experiment with SF-295 CNS; 1.43 µM with HOP-92 NSCLC. Also, the GI50 in the experiment on CAKI-1 renal was 1.8 µM; with HCC-2998 colon it was 1.78 µM; in the experiment on HCT-116 colon, 2.69 µM; in the experiment with MALME-3M melanoma, 1.69 µM. The TGI in the experiment on DU-145 prostate amounted to 70.6 µM; in the experiment with NCI-H226 lung it was 3.93 µM; with HCT-15 colon, 4.62 µM; in the experiment on HL-60(TB) leukemia, 4.83 µM; in the experiment on SF-295 CNS, 4.08 µM; in the experiment with HOP-92 NSCLC, 3.05 µM. Further, the TGI was 5.11 µM in the experiment on CAKI-1 renal, 3.23 µM with HCC-2998 colon, 12.5 µM with HCT-116 colon and 3.2 µM in the experiment on MALME-3M melanoma.
In the case of `O=C(Cc1ccc(Nc2ccnc(C(F)(F)F)c2)cc1)N/N=C/c1ccccc1O`, the GI50 with DU-145 prostate is 3.17 µM; with NCI-H226 lung it was 3.85 µM; in the experiment with HCT-15 colon, 0.634 µM; in the experiment with HL-60(TB) leukemia it was 1.9 µM; in the experiment with SF-295 CNS, 2.72 µM; in the experiment with HOP-92 NSCLC it was 1.97 µM. Besides, the GI50 with CAKI-1 renal was 1.35 µM; in the experiment on HCC-2998 colon it was 1.16 µM; in the experiment on HCT-116 colon, 1.92 µM; in the experiment with MALME-3M melanoma it was 4.07 µM. In addition, the TGI with DU-145 prostate was over 58.1 µM; in the experiment with NCI-H226 lung, over 55.6 µM; in the experiment on HCT-15 colon, over 69.5 µM; in the experiment on HL-60(TB) leukemia, 5.44 µM; with SF-295 CNS, 38 µM; in the experiment on HOP-92 NSCLC, 21 µM. Moreover, the TGI in the experiment on CAKI-1 renal was 13 µM; with HCC-2998 colon it was 10.8 µM; in the experiment with HCT-116 colon it was over 39.6 µM; with MALME-3M melanoma, over 38.4 µM.
With `Brc1ccc(Nc2nc3ccccc3nc2Nc2ccc(Br)cc2)cc1`, the GI50 with DU-145 prostate was 0.644 µM; in the experiment on NCI-H226 lung, 2.75 µM; with HCT-15 colon, 0.507 µM; with HL-60(TB) leukemia, 2.09 µM; in the experiment with SF-295 CNS, 1.44 µM; in the experiment on HOP-92 NSCLC, 2.19 µM. The GI50 with CAKI-1 renal was 0.714 µM; in the experiment on HCC-2998 colon it was 1.66 µM; with HCT-116 colon, 0.418 µM; in the experiment with MALME-3M melanoma, 1.98 µM. In addition, the TGI was 12.4 µM in the experiment on DU-145 prostate; 10.1 µM in the experiment with NCI-H226 lung; 3.21 µM in the experiment on HCT-15 colon; 5.96 µM in the experiment with HL-60(TB) leukemia; 4.22 µM in the experiment with SF-295 CNS; 5.5 µM in the experiment with HOP-92 NSCLC. The TGI turned out to be 6.61 µM with CAKI-1 renal, 7.7 µM with HCC-2998 colon, 1.65 µM in the experiment with HCT-116 colon and 4.95 µM in the experiment on MALME-3M melanoma.
Turning to `CCN(CC)CC(O)COc1c(Br)c(Br)c(Br)c2c1OC(C)(C)C2` (stereo not drawn), the GI50 was 5.43 µM in the experiment on DU-145 prostate; 13.5 µM in the experiment on NCI-H226 lung; 4.74 µM in the experiment with HCT-15 colon; 1.73 µM with HL-60(TB) leukemia; 1.1 µM with SF-295 CNS; 1.35 µM with HOP-92 NSCLC. Besides, the GI50 with CAKI-1 renal was 6.8 µM; in the experiment on HCC-2998 colon, 3.42 µM; in the experiment with HCT-116 colon, 3.85 µM; in the experiment with MALME-3M melanoma, 2.28 µM. Also, the TGI turned out to be 18.1 µM in the experiment on DU-145 prostate; 40.9 µM with NCI-H226 lung; 14.7 µM in the experiment with HCT-15 colon; 3.53 µM with HL-60(TB) leukemia; 2.71 µM in the experiment on SF-295 CNS; 6.05 µM in the experiment on HOP-92 NSCLC. The TGI in the experiment with CAKI-1 renal was 23.8 µM; with HCC-2998 colon it was 9.23 µM; in the experiment with HCT-116 colon, over 100 µM; in the experiment on MALME-3M melanoma, 5.14 µM.
For the molecule `FC(F)(F)c1cc(-c2ncn(/C=C\c3nnco3)n2)cc(C(F)(F)F)c1`, the GI50 with DU-145 prostate was 0.315 µM; in the experiment on NCI-H226 lung, 0.0383 µM; in the experiment with HCT-15 colon, 0.133 µM; in the experiment with HL-60(TB) leukemia, 0.0485 µM; in the experiment with SF-295 CNS it was 0.0634 µM; in the experiment with HOP-92 NSCLC, 0.0391 µM. Moreover, the GI50 in the experiment on CAKI-1 renal is 0.0497 µM; with HCC-2998 colon it was 0.317 µM; in the experiment with HCT-116 colon, 0.0621 µM; in the experiment with MALME-3M melanoma it was 0.102 µM. Further, the TGI in the experiment with DU-145 prostate is 22 µM; in the experiment with NCI-H226 lung, 23.6 µM; in the experiment on HCT-15 colon it was over 33.4 µM; in the experiment with HL-60(TB) leukemia, 13.4 µM; in the experiment with SF-295 CNS it was over 43.3 µM; with HOP-92 NSCLC, 4.87 µM. Moreover, the TGI with CAKI-1 renal is over 38.9 µM; in the experiment with HCC-2998 colon, 11.1 µM; with HCT-116 colon, over 41.9 µM; with MALME-3M melanoma it was 0.734 µM.
